Experiments:
[1] = biological target: CDK8/Cyclin C (Homo sapiens) (UniProt P49336+P24863); test: Inhibition of human CDK8/Cyc C expressed in Sf21 cells at 1 uM measured after 1 hr by fluorescence plate reader relative to control
[2] = biological target: Cyclin-C/Cyclin-dependent kinase 19 (Homo sapiens) (UniProt Q9BWU1+P24863); test: Inhibition of humanGST-tagged CDK19/Cyc C expressed in Sf21 cells at 1 uM measured after 1 hr by fluorescence plate reader relative to control
[3] = tested on: RPMI-8226; test: Antiproliferative activity against human RPMI-8226 assessed as inhibition of cell growth at 1 uM after 8 days measured after Celltiter-Glo assay relative to control; type: functional; conditions: Homo sapiens, RPMI-8226, 192 h, time 8 day

| inhibition [1] [%] | inhibition [2] [%] | SMILES | inhibition at 1 µM [3] [%] |
| --- | --- | --- | --- |
| 100 | 103 | CC(C)(O)Cc1ccc(NC(=O)/C=C/c2cnccc2-c2cnn(C3CC3)c2)cc1 | 61 |
| 98 | 100 | O=C(/C=C/c1cnccc1-c1cnn(C(F)F)c1)Nc1ccc(CN2CCOCC2)cc1 | 53 |
| 97 | 101 | Cn1cc(-c2ccncc2/C=C/C(=O)Nc2ccc(CN3CCOC(C)(C)C3)cc2)cn1 | 61 |
| 100 | 97 | Cn1ccc2cc(NC(=O)/C=C/c3cnccc3-c3cnn(C4CC4)c3)ccc21 | 61 |
| 103 | 97 | COCCn1cnc2ccc(-c3ccncc3/C=C/C(=O)Nc3ccc(CN4CCOCC4)cc3)cc21 | 62 |
| 98 | 101 | Cn1cc(-c2ccncc2/C=C/C(=O)Nc2ccc3c(c2)CCN(CC(F)(F)F)C3)cn1 | 65 |
| 99 | 101 | O=C(/C=C/c1cnccc1-c1ccc2[nH]cnc2c1)Nc1ccc(CN2CCOCC2)cc1 | 66 |
| 84 | 78 | Cn1cc(-c2ccncc2/C=C/C(=O)Nc2cccc(-c3cccnc3)c2)cn1 | 58 |
| 102 | 93 | COC(C)c1ccc(NC(=O)/C=C/c2cnccc2-c2cnn(C3CC3)c2)cc1 (stereo not given) | 62 |
| 98 | 97 | O=C(/C=C/c1cnccc1-c1cnn2ccccc12)Nc1ccc(CN2CCOCC2)cc1 | 55 |
| 96 | 101 | Cn1cc(-c2ccncc2/C=C/C(=O)Nc2ccc(CCN3CCOCC3)cc2)cn1 | 59 |
| 96 | 95 | Cn1cc(-c2ccncc2/C=C/C(=O)Nc2ccc3c(c2)CCO3)cn1 | 55 |
| 100 | 96 | Cn1cc(-c2ccncc2/C=C/C(=O)Nc2ccc(CN3CC4CC3CO4)cc2)cn1 (stereo not given) | 58 |
| 97 | 97 | Cn1cc(-c2ccncc2/C=C/C(=O)Nc2ccc(CN3CCC4(CC3)COC4)cc2)cn1 | 60 |
| 92 | 95 | Cn1cc(-c2ccncc2/C=C/C(=O)Nc2ccc(CC#N)cc2)cn1 | 57 |
| 99 | 99 | Cn1cc(-c2ccncc2/C=C/C(=O)Nc2ccc(CN3CC(F)(F)C3)cc2)cn1 | 48 |

| inhibition [1] [%] | inhibition [2] [%] | SMILES | inhibition at 1 µM [3] [%] |
| --- | --- | --- | --- |
| 102 | 95 | CC(C)(F)Cc1ccc(NC(=O)/C=C/c2cnccc2-c2cnn(C3CC3)c2)cc1 | 61 |
| 98 | 98 | CN(C)CCc1ccc(NC(=O)/C=C/c2cnccc2-c2cnn(C)c2)cc1 | 66 |
| 85 | 84 | Cn1cnc2ccc(-c3ccncc3/C=C/C(=O)Nc3ccc4c(ccn4CC(F)(F)F)c3)cc21 | 63 |
| 94 | 90 | Cn1cc(-c2ccncc2/C=C/C(=O)Nc2ccc3ncsc3c2)cn1 | 53 |
| 94 | 94 | Cn1cc(-c2ccncc2/C=C/C(=O)Nc2ccc3ccncc3c2)cn1 | 55 |
| 103 | 98 | O=C(/C=C/c1cnccc1-c1cnn(C2CC2)c1)Nc1ccc2c(c1)CCN(CC(F)(F)F)C2 | 49 |
| 97 | 100 | COc1ccsc1-c1ccncc1/C=C/C(=O)Nc1ccc(CN2CCOCC2)cc1 | 52 |
| 99 | 92 | Cn1cc(-c2ccncc2/C=C/C(=O)Nc2ccc(CC(F)(F)F)cc2)cn1 | 60 |
| 99 | 100 | Cn1cc(-c2ccncc2/C=C/C(=O)Nc2ccc(CN3CCC(F)(F)C3)cc2)cn1 | 62 |
| 100 | 98 | Cc1nn(C)cc1-c1ccncc1/C=C/C(=O)Nc1ccc(CCc2nnco2)cc1 | 54 |
| 96 | 100 | CCn1cc(-c2ccncc2/C=C/C(=O)Nc2ccc(CN3CCOCC3)cc2)cn1 | 63 |
| 92 | 87 | Cn1cc(-c2ccncc2/C=C/C(=O)Nc2ccc3c(c2)CCC3=O)cn1 | 54 |
| 95 | 95 | Cc1ncc(-c2ccncc2/C=C/C(=O)Nc2ccc(CN3CCOCC3)cc2)s1 | 54 |
| 102 | 96 | O=C(/C=C/c1cnccc1-c1cnn(C2CC2)c1)Nc1ccc2c(c1)CN(CC(F)(F)CO)C2 | 65 |
| 97 | 98 | Cn1cc(-c2ccncc2/C=C/C(=O)Nc2ccc(CN3CC(F)(F)OC(F)(F)C3)cc2)cn1 | 55 |

The remaining lines, values behind:

| SMILES | inhibition [1] [%] | inhibition [2] [%] | inhibition at 1 µM [3] [%] |
| --- | --- | --- | --- |
| CC(C)(O)Cc1ccc(NC(=O)/C=C/c2cncc(F)c2-c2cnn(C3CC3)c2)c(F)c1 | 102 | 99 | 60 |
| O=C(/C=C/c1cnccc1-c1cnn(C2CC2)c1)Nc1ccc(COCC(F)(F)F)cc1F | 101 | 96 | 53 |
| Cn1cc(-c2ccncc2/C=C/C(=O)Nc2ccc3c(c2)CN(CC(F)F)C3)cn1 | 105 | 94 | 63 |
| Cn1cc(-c2ccncc2/C=C/C(=O)Nc2ccc(CN3CCOCC3)c(F)c2)cn1 | 99 | 97 | 62 |
| O=C(/C=C/c1cnccc1-c1cnn(C2CC2)c1)Nc1ccc2c(ccn2CC(F)(F)F)c1 | 99 | 98 | 57 |
| COCCOc1ccc(NC(=O)/C=C/c2cnccc2-c2cnn(C)c2)cc1 | 98 | 97 | 62 |
| Cn1cc(-c2ccncc2/C=C/C(=O)Nc2ccc(CN3CC4CCC(C3)O4)cc2)cn1 | 96 | 97 | 61 |
| Cn1cc(-c2ccncc2/C=C/C(=O)Nc2ccc3c(c2)OCC3)cn1 | 100 | 94 | 55 |
| Cn1cc(-c2ccncc2/C=C/C(=O)Nc2ccc3c(ccn3C)c2)cn1 | 98 | 99 | 55 |
| Cn1cc(-c2ccncc2/C=C/C(=O)Nc2ccc(CN3CCOCC3)c(Cl)c2)cn1 | 99 | 99 | 53 |
| Cn1cc2cc(-c3ccncc3/C=C/C(=O)Nc3ccc(CN4CCOCC4)cc3)ccc2n1 | 97 | 93 | 52 |
| COc1ncc(-c2ccncc2/C=C/C(=O)Nc2ccc(CN3CCOCC3)cc2)s1 | 99 | 98 | 63 |
| Cn1cc(-c2ccncc2/C=C/C(=O)Nc2ccc(CCC(F)(F)F)cc2)cn1 | 98 | 99 | 53 |
| O=C(/C=C/c1cnccc1-c1ccc2[nH]ncc2c1)Nc1ccc(CN2CCOCC2)cc1 | 96 | 97 | 55 |
| Cn1cc(-c2c(F)cncc2/C=C/C(=O)Nc2ccc3c(c2)CN(CC(C)(F)F)C3)cn1 | 106 | 100 | 63 |
| O=C(/C=C/c1cnccc1-c1cnn(CC2(F)CC2)c1)Nc1ccc(CN2CCOCC2)cc1 | 99 | 101 | 57 |
| Cn1cc(-c2ccncc2/C=C/C(=O)Nc2ccc3cnccc3c2)cn1 | 96 | 99 | 62 |
| O=C(/C=C/c1cncc(F)c1-c1cnn(C2CC2)c1)Nc1ccc2c(c1)OCCO2 | 103 | 98 | 65 |
| O=C(/C=C/c1cnccc1-c1cnn(Cc2ccccn2)c1)Nc1ccc(CN2CCOCC2)cc1 | 101 | 98 | 57 |
| COc1ncc(-c2ccncc2/C=C/C(=O)Nc2ccc(CN3CCOCC3)cc2F)s1 | 99 | 96 | 63 |
| CC(c1ccc(NC(=O)/C=C/c2cnccc2-c2cnn(C)c2)cc1)N1CCOCC1 (stereo not given) | 96 | 98 | 57 |
| Cn1cc(-c2ccncc2/C=C/C(=O)Nc2ccc(CN3CCN4CCCC4C3)cc2)cn1 (stereo not given) | 100 | 74 | 59 |
| O=C(/C=C/c1cnccc1-c1ccns1)Nc1ccc(CN2CCOCC2)cc1 | 101 | 98 | 54 |
| O=C(/C=C/c1cnccc1-c1cnn(CC2CC2)c1)Nc1ccc(CN2CCOCC2)cc1 | 98 | 99 | 55 |
| O=C(/C=C/c1cnccc1-c1cnn(CC2CC2)c1)Nc1ccc(CCN2CCOCC2)cc1 | 94 | 97 | 58 |
| O=C(/C=C/c1cnccc1-c1cnsc1)Nc1ccc(CN2CCOCC2)cc1 | 90 | 94 | 51 |
| Cn1cc(-c2ccncc2/C=C/C(=O)Nc2ccc(CNC3CC3)cc2)cn1 | 95 | 96 | 56 |
| Cn1cc(-c2ccncc2/C=C/C(=O)Nc2ccc(N3CC(F)(F)C3)cc2)cn1 | 105 | 99 | 50 |
| COC(C)(C)Cc1ccc(NC(=O)/C=C/c2cnccc2-c2cnn(C3CC3)c2)cc1 | 101 | 94 | 67 |

Reference: ChEMBL document CHEMBL4742385 (2019)
